Laboratory results: US12662491B2 (Redona Therapeutics, Inc., priority 2020, dated 2026)

Target: T1, Zcchc11 enzyme (Homo sapiens, UniProt Q5TAX3)
T1 construct: made in house; host or cells: HEK293 cells (Zcchc11); E. coli Rosetta II (LIN28A)
T1 sequence (Q5TAX3 212-1420): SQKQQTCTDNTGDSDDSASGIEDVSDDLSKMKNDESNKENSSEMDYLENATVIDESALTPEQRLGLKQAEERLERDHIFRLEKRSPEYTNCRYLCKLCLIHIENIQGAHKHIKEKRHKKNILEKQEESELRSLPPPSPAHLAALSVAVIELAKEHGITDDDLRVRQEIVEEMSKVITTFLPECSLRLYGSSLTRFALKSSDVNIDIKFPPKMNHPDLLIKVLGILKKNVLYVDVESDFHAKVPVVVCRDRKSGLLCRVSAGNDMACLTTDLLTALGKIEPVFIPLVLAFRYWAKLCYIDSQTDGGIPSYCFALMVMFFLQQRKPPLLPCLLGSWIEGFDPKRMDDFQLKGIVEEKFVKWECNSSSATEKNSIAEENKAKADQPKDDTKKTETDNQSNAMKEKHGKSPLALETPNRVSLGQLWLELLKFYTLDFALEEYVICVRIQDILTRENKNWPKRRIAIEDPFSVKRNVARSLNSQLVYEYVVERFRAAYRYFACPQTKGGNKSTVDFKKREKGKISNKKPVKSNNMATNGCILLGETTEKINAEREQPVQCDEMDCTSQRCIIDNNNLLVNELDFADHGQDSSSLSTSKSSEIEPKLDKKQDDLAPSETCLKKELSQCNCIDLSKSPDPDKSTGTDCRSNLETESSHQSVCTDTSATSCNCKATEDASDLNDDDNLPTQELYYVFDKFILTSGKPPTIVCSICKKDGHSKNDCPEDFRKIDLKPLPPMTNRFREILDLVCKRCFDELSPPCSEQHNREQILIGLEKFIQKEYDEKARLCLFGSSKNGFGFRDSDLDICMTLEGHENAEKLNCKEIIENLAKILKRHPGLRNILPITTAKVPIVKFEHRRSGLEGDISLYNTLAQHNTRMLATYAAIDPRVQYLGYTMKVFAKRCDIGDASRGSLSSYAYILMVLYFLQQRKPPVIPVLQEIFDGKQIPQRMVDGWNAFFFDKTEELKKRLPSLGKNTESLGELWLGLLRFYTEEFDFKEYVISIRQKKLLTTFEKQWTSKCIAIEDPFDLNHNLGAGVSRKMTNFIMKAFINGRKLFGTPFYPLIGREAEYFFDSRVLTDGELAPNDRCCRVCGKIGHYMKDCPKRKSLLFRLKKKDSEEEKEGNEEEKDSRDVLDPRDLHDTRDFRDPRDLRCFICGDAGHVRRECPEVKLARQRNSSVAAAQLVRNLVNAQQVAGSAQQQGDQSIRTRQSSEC
Assay: TUTase assay (Zcchc11 assay, Lin28a-dependent polyuridylation of pre-let-7)
Type: biochemical
Conditions: Lin28a-dependent Zcchc11 (Z11) TUTase assay; read-out: Potency Lin28a-dep Z11 IC50
Outline: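 HEK293-expressed human Zcchc11 (residues 212-1420, 0.2 nM) with 10 nM LIN28A and 2 nM 5′-fluorescein pre-let-7, preincubated 30 min at room temperature, pH 7.3. Started with 5 uM UTP; poly(U) tails quenched by 3′-rhodamine A20 probe, read kinetically. IC50 from early-rate four-parameter fit; no-UTP wells define 0%.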

| IC50 [µM] | SMILES |
| --- | --- |
| ≤ 1 | COc1ccc(-n2cc(C(=O)O)c(=O)c3cc(Cl)c(N4CCC[C@@H]4COc4ncccc4Cl)cc32)cn1 [Example 353, (R)-6-chloro-7-(2-(((3-chloropyridin-2-yl)oxy)methyl)pyrrolidin-1-yl)-1-(6-methoxypyridin-3-yl)-4-oxo-1,4-dihydroquinoline-3-carboxylic acid] |
| 1 to 10 | O=C(O)c1cn(-c2cnc(O)cn2)c2cc(N3CCC[C@@H]3COc3ccccn3)c(F)cc2c1=O [Example 354, (R)-6-fluoro-1-(5-hydroxypyrazin-2-yl)-4-oxo-7-(2-((pyridin-2-yloxy)methyl)pyrrolidin-1-yl)-1,4-dihydroquinoline-3-carboxylic acid] |
| ≤ 1 | CNCCNc1ccc(-n2cc(C(=O)O)c(=O)c3cc(Cl)c(N4CCC[C@@H]4COc4ncccc4Cl)cc32)cn1 [Example 355, (R)-6-chloro-7-(2-(((3-chloropyridin-2-yl)oxy)methyl)pyrrolidin-1-yl)-1-(6-((2-(methylamino)ethyl)amino)pyridin-3-yl)-4-oxo-1,4-dihydro-quinoline-3-carboxylic acid] |
| ≤ 1 | Cc1cccnc1OC[C@H]1CCCN1c1cc2c(cc1F)c(=O)c(C(=O)O)cn2C1(C)CC1 [Example 356, (R)-6-fluoro-1-(1-methylcyclo-propyl)-7-(2-(((3-methylpyridin-2-yl)oxy)methyl)pyrrolidin-1-yl)-4-oxo-1,4-dihydroquinoline-3-carboxylic acid] |
| 1 to 10 | O=C(O)c1cn(C2CC2)c2c(F)c(N3CCC[C@@H]3COc3cccnc3)c(F)cc2c1=O [Example 357, (R)-1-cyclopropyl-6,8-difluoro-4-oxo-7-(2-((pyridin-3-yloxy)methyl)pyrrolidin-1-yl)-1,4-dihydro-quinoline-3-carboxylic acid] |
| 1 to 10 | CC(=O)NC1CCC(n2cc(C(=O)O)c(=O)c3cc(F)c(N4CCC[C@@H]4COc4ccccn4)cc32)CC1 (stereo partly drawn) [Example 358, 1-(4-acetamidocyclo-hexyl)-6-fluoro-4-oxo-7-[(2R)-2-[(pyridin-2-yloxy)methyl]pyrrolo-1-yl]-1,4-dihydroquinoline-3-carboxylic acid] |
| 1 to 10 | COC1CC(n2cc(C(=O)O)c(=O)c3cc(F)c(N4CCC[C@@H]4COc4ccccn4)cc32)C1 (stereo partly drawn) [Example 359, (R)-6-fluoro-1-(3-methoxycyclo-butyl)-4-oxo-7-(2-((pyridin-2-yloxy)methyl)pyrrolidin-1-yl)-1,4-dihydro-quinoline-3-carboxylic acid] |
| 1 to 10 | CS(=O)(=O)NC1CCC(n2cc(C(=O)O)c(=O)c3cc(F)c(N4CCC[C@@H]4COc4ccccn4)cc32)CC1 (stereo partly drawn) [Example 360, (R)-6-fluoro-1-(4-(methyl-sulfonamido)cyclo-hexyl)-4-oxo-7-(2-((pyridin-2-yloxy)methyl)pyrrolidin-1-yl)-1,4-dihydro-quinoline-3-carboxylic acid] |
| ≤ 1 | CC1(n2cc(C(=O)O)c(=O)c3cc(F)c(N4CCC[C@@H]4COc4ccccn4)cc32)CC1 [Example 361, (R)-6-fluoro-1-(1-methylcyclo-propyl)-4-oxo-7-(2-((pyridin-2-yloxy)methyl)pyrrolidin-1-yl)-1,4-dihydroquinoline-3-carboxylic acid] |
| ≤ 1 | Cc1cccnc1OC[C@H]1CCCN1c1cc2c(cc1F)c(=O)c(C(=O)O)cn2C1CC(O)C1 (stereo partly drawn) [Example 362, (R)-6-fluoro-1-(3-hydroxycyclo-butyl)-7-(2-(((3-methylpyridin-2-yl)oxy)methyl)pyrrolidin-1-yl)-4-oxo-1,4-dihydroquinoline-3-carboxylic acid] |
| 1 to 10 | CC1(n2cc(C(=O)O)c(=O)c3cc(F)c(N4CCC[C@@H]4COc4ccccn4)cc32)CCC1 [Example 363, (R)-6-fluoro-1-(1-methylcyclo-butyl)-4-oxo-7-(2-((pyridin-2-yloxy)methyl)pyrrolidin-1-yl)-1,4-dihydro-quinoline-3-carboxylic acid] |
| ≤ 1 | O=C(O)c1cn(-c2cnc(O)cn2)c2cc(N3CCC[C@@H]3COc3ncccc3Cl)c(Cl)cc2c1=O [Example 364, 6-Chloro-7-[(2R)-2-{[(3-chloropyridin-2-yl)oxy]methyl}pyrrolidin-1-yl]-1-(5-hydroxy-pyrazin-2-yl)-4-oxo-1,4-dihydroquinoline-3-carboxylic acid] |
| 1 to 10 | Cc1cccnc1OC[C@H]1CCCN1c1cc2c(cc1Br)c(=O)c(C(=O)O)cn2C1(C)CC1 [Example 365, 6-Bromo-1-(1-methylcyclo-propyl)-7-[(2R)-2-{[(3-methyl-pyridin-2-yl)oxy]methyl}pyrrolidin-1-yl]-4-oxo-1,4-dihydroquinoline-3-carboxylic acid] |
| 1 to 10 | Cc1cccnc1OC[C@H]1CCCN1c1cc2c(cc1Cl)c(=O)c(C(=O)O)cn2C1CNC1 [Example 366, 1-(Azetidin-3-yl)-6-chloro-7-[(2R)-2-{[(3-methyl-pyridin-2-yl)oxy]methyl}pyrrolidin-1-yl]-4-oxo-1,4-dihydroquinoline-3-carboxylic acid] |
| 1 to 10 | O=C(O)c1cn(C2CCNC2)c2cc(N3CCC[C@@H]3COc3ncccc3Cl)c(Cl)cc2c1=O (stereo partly drawn) [Example 367, 6-chloro-7-[(2R)-2-{[(3-chloro-pyridin-2-yl)oxy)methyl}pyrrolidin-1-yl]-4-oxo-1-(pyrrolidin-3-yl)-1,4-dihydroquinoline-3-carboxylic acid] |
| 1 to 10 | O=C(O)c1cn(C2CCNCC2)c2cc(N3CCC[C@@H]3COc3ncccc3Cl)c(Cl)cc2c1=O [Example 368, 6-chloro-7-[(2R)-2-{[(3-chloropyridin-2-yl)oxy]methyl}pyrrolidin-1-yl]-4-oxo-1-(piperidin-4-yl)-1,4-dihydroquinoline-3-carboxylic acid] |
| 1 to 10 | O=C(O)c1cn(C2CC3(CNC3)C2)c2cc(N3CCC[C@@H]3COc3ncccc3Cl)c(Cl)cc2c1=O [Example 369, 1-{2-Azaspiro[3.3]heptan-6-yl}-6-chloro-7-[(2R)-2-{[(3-chloropyridin-2-yl)oxy]methyl}pyrrolidin-1-yl]-4-oxo-1,4-dihydroquinoline-3-carboxylic acid] |
| ≤ 1 | CC(=O)Nc1ccc(-n2cc(C(=O)O)c(=O)c3cc(F)c(N4CCC[C@@H]4COc4ccccn4)cc32)cc1 [Example 370, (R)-1-(4-acetamidophenyl)-6-fluoro-4-oxo-7-(2-((pyridin-2-yloxy)methyl)pyrrolidin-1-yl)-1,4-dihydro-quinoline-3-carboxylic acid] |
| ≤ 1 | CS(=O)(=O)Nc1ccc(-n2cc(C(=O)O)c(=O)c3cc(F)c(N4CCC[C@@H]4COc4ccccn4)cc32)cc1 [Example 371, (R)-6-fluoro-1-(4-(methyl-sulfonamido)phenyl)-4-oxo-7-(2-((pyridin-2-yloxy)methyl)pyrrolidin-1-yl)-1,4-dihydro-quinoline-3-carboxylic acid] |
| ≤ 1 | O=C(O)c1cn(-c2ccc(CO)cc2)c2cc(N3CCC[C@@H]3COc3ccccn3)c(F)cc2c1=O [Example 372, (R)-6-fluoro-1-(4-(hydroxymethyl)phenyl)-4-oxo-7-(2-((pyridin-2-yloxy)methyl)pyrrolidin-1-yl)-1,4-dihydroquinoline-3-carboxylic acid] |
| 1 to 10 | O=C(O)c1cn(-c2ccccc2F)c2cc(N3CCC[C@@H]3COc3ccccn3)c(F)cc2c1=O [Example 373, (R)-6-fluoro-1-(2-fluorophenyl)-4-oxo-7-(2-((pyridin-2-yloxy)methyl)pyrrolidin-1-yl)-1,4-dihydroquinoline-3-carboxylic acid] |
| ≤ 1 | O=C(O)c1cn(-c2ccc(CO)cc2F)c2cc(N3CCC[C@@H]3COc3ccccn3)c(F)cc2c1=O [Example 374, (R)-6-fluoro-1-(2-fluoro-4-(hydroxymethyl)phenyl)-4-oxo-7-(2-((pyridin-2-yloxy)methyl)pyrrolidin-1-yl)-1,4-dihydroquinoline-3-carboxylic acid] |
| 1 to 10 | O=C(O)c1cn(-c2cccc(F)c2)c2cc(N3CCC[C@@H]3COc3ccccn3)c(F)cc2c1=O [Example 375, (R)-6-fluoro-1-(3-fluorophenyl)-4-oxo-7-(2-((pyridin-2-yloxy)methyl)pyrrolidin-1-yl)-1,4-dihydroquinoline-3-carboxylic acid] |
